Peptide text beside a SMILES is read from it. * marks the point of attachment. Cbz = O=C(OCc1ccccc1)*
What was measured:
[1] = tested on: primary human fibroblasts; format: cell-based; conditions: confluent primary human fibroblasts treated prior to rAAV infection; FACS at 96 hours post-infection
Protocol: Initial studies were performed in confluent primary human fibroblasts since dose titrations and toxicity could be quickly assessed. Selected agents were used to treat fibroblast monolayers prior to rAAV infection. rAAV transduction was assessed at 96 hours post-infection by FACS analysis, and the percentage of dead cells was simultaneously assessed by incorporation of propidium iodide.
These tripeptides are structurally related to chloroquine but have different lipid solubility and specificity for cysteine proteases (Seglen, 1983). These molecules decrease endosomal degradation of molecules by a mechanism different than altering pH.

HeLa cells = test: AAV2 FLAG-Luc transduction of HeLa cells (luciferase screen); format: cell-based, human; conditions: for concentration at which transduction was enhanced: HeLa cells
Source text: (§1) A. To screen for agents that enhance rAAV transduction, any number of cells can be used. A range of concentrations of the agent to be tested can be determined based on, for instance desirable profiles of the agent, desirable toxicity profiles of the agent and/or concentration of the agents employed in vivo. The usefulness of the cell type chosen for the screen can be confirmed by testing compounds, e.g., proteasome inhibitors such as LLnL and ZLL which are known to increase rAAV transduction. For example, a AAV2 FLAG-Luc vector was employed to transduce HeLa, ferret fibroblasts, IB3 and Huh (liver) cells in the presence or absence of the proteasome inhibitor MG132. MG132 was confirmed to enhance AAV transduction in all cell types tested: HeLa cell transduction was enhanced about 500-fold at 80 μM, and 200-fold at 40 μM, MG132; ferret fibroblast cell transduction was enhanced about 200-fold at 20 μM, and 17-fold at 4 μM, MG132; IB3-1 cell transduction was enhanced about 30 to 70-fold at 20 to 80 μM MG132; and Huh-7 cell transduction was enhanced about 15-fold at 20 to 80 μM MG132. There was no difference in rAAV transduction efficiency in HeLa cells when either DMSO or ETOH was used as a vehicle for MG132. B. HeLa cells were selected to screen for additional agents that enhance rAAV transduction, although any cell strain or line; or primary cells, may be employed. […] The range of concentrations of the agents to be tested were selected based on solubility profiles, toxicity profiles and/or concentrations previously employed in vivo.
HeLa cells were infected for 2 hours with an MOI of 100 rAAV in the presence of agents, e.g., ritonavir (Norvir) (1, 10 and 100 μM), cyclosporin A (2.5, 25 and 250 μg/ml), epoxomicin (1, 10 and 50 μM), alcacinomycin A (5, 50 or 500 μM), chymostatin (1, 10 and 100 μM), bestatin (1, 10 and 100 μM), doxorubicin (adriamycin) (0.1, 1 and 10 μM), camptothecin (camptosar) (1, 10 and 100 μM), eicosapentanoic acid (1, 10 and 100 μM), tannic acid (2, 20, 200 and 2000 μM), simvastatin, prodrug (2, 20 and 200 μM), cisplatin (0.2, 2 and 20 μg/mL), and chloroquine (4, 40 and 400 μM). Forty-eight hours after infection, cells were harvested for analysis. rAAV transduction was measured by removing the media from the cell cultures, adding 100 μL reporter lysis buffer (RLB) and freezing. The supernatant was thawed and transferred to microfuge tubes, freeze thawed an additional 2 times, clarified by centrifugation for 10 minutes and then analyzed for reporter gene expression on the lumometer. Protein was determined by Bradford analysis and results were expressed as relative light units per mg protein (RLU/mg).
Based on results with doxorubicin, a small number of FDA approved anthracyclines were tested for their relative in vitro and in vivo activities on AAV transduction. HeLa cells were infected with 100 ppc AAV2FLAG-Luc for 2 hours in the presence of different anthracyclines, e.g., doxorubicin, daunarubicin (Cerubidine), epirubicin (Ellence™), and idarubicin (Idamycin®), and cells harvested 48 hours later. The anthracyclines were pharmaceutical grade, and prepared according to the manufacturer's instructions. Prior to use, the agents were diluted in sterile water to an equal mass, e.g., 0.6 μg/mL, 3 μg/mL and 6 μg/mL. For example, 3 μg/mL idamycin increased luciferase expression by over 5000-fold while doxorubin increased luciferase expression by 58-fold. Generally, the potency was as follows: idarubicin>daunarubicin>epirubicin>doxorubicin.

ferret fibroblasts = test: rAAV transduction of ferret fibroblasts; format: cell-based; conditions: for concentration at which transduction was enhanced: ferret fibroblast cells
Source text: as §1
(§2) C. To determine whether combinations of agents that enhance rAAV transduction efficiency have synergistic or additive effects when used in combination, cells were contacted with the proteasome modulator, doxorubicin, and the proteasome inhibitor Z-LLL or LLnL. Different AAV vectors were tested, including splicing vectors and pseudotyped rAAV. Viral stocks utilized were as follows: Av2RSVluc, 5×10^8 particle/μl; Av2RSVlucCap5 (also referred to as Av2/5 CMVLuc), 2×10^9 particle/μl; Av2CMVluc, 1.3×10^9 particle/μl; and Av2CMVlucCap5, 1.1×109 particle/μl. Combinations of agents were compared to the agents used alone to determine the efficiency of transduction. LLnL was used at 40, 200 or 400 μM, Z-LLL at 4 μM and doxorubicin at 0.5 or 1 μM when employed alone. When a combination of LLnL and doxorubicin was used, LLnL was used at 4, 10, 20, 40, 200 or 400 μM and doxorubicin at 1 or 5 μM. The apical surface of polarized airway epithelia, HeLa cells or ferret fibroblast was contacted with the agents and rAAV (5×10^9 particles per well).

[2] = tested on: polarized airway epithelia; test: Apical rAAV (AAV2 and AAV5 capsid) infection of polarized airway epithelia with agent combinations; format: cell-based, human; conditions: for concentration at which transduction was enhanced: polarized airway epithelial cells
Protocol: as §2

IB3 cells [3] = test: AV2Luc and AV2/5Luc transduction of IB3 cells; format: cell-based, human; conditions: 24 hours post-infection
Protocol: (§3) LLnL and Z-LLL are two tripeptidyl aldehydes shown to inhibit calpains, cathepsins, cysteine proteases as well as the chymotrypsin-like protease activity of proteasomes (Wagner et al., 2002; Donkor, 2000; Sasaki et al., 1990). […] Both classes of proteasome inhibitors bind tightly to the proteasome complex. Dose response curves for these two proteasome-modulating agents were evaluated on IB3, A549, Hela, and primary fibroblasts. The responses were consistent for a number of cell lines and for three different promoters driving luciferase expression. For one set, CMV-driven luciferase constructs with an AAV2-based genome were employed that were packaged into AV2 or AV5 capsids. Cells were infected at various doses of AV2Luc and AV2/5Luc (MOIs 100 to 1000 particles/cell). At the time of infection, cells were treated with various concentrations of LLnL or Doxorubicin and gene expression was assayed at 24 hours post-infection. The effect of proteasome inhibitors on nuclear uptake of virus was evaluated using a previously-described protocol for fractionating viral DNA in the cytoplasm and nucleus (Xiao et al., 2002). Viral DNA content in the cytoplasmic and nuclear fractions was then evaluated by slot blot hybridization against a Luciferase DNA probe.

IB3 cells [4] = test: Nuclear versus cytoplasmic viral DNA fractionation in rAAV2-infected IB3 cells; format: cell-based, human
Protocol: as §3

| Compound | rAAV transduction [1] | enhancement of HeLa cell transduction (HeLa cells; 40 μM) | enhancement of HeLa cell transduction (HeLa cells; 80 μM) | enhancement of ferret fibroblast cell transduction (ferret fibroblasts; 4 μM) | enhancement of ferret fibroblast cell transduction (ferret fibroblasts; 20 μM) | result in cell line screening (HeLa cells) | increase in luciferase expression (HeLa cells; 3 μg/mL, 100 ppc AAV2FLAG-Luc, harvest 48 hours) | order of potency among anthracyclines (HeLa cells; 0.6, 3 and 6 μg/mL) | concentration at which transduction was enhanced (HeLa cells) | dose dependence of transduction (HeLa cells; dose ranges tested) | concentration at which transduction was enhanced (ferret fibroblasts) | enhancement of transduction (ferret fibroblasts; ferret fibroblasts infected with lacZ splicing vectors) | induction of AAV2 and AAV5 apical infection of polarized cells ([2]; in the presence of doxorubicin) | concentration at which transduction was enhanced [2] | induction of rAAV transduction (IB3 cells [3]) | fraction of viral DNA in the nuclear compartment (IB3 cells [4]) |
| --- | --- | --- | --- | --- | --- | --- | --- | --- | --- | --- | --- | --- | --- | --- | --- | --- |
| CC(C)C[C@@H](C=O)NC(=O)[C@H](CC(C)C)NC(=O)[C@H](CC(C)C)NC(=O)OCc1ccccc1 [Z-LLL, N-carbobenzoxyl-L-leucinyl-L-leucinyl-L-leucinal] (Cbz-Leu-Leu-Leu-aldehyde) | significantly increased rAAV transduction | about 200 fold | about 500 fold | ~17 fold | about 200 fold |  |  |  |  |  |  |  |  |  |  |  |
| COc1cccc2c1C(=O)c1c(O)c3c(c(O)c1C2=O)C[C@@](O)(C(=O)CO)C[C@@H]3O[C@H]1C[C@H](N)[C@H](O)[C@H](C)O1 [doxorubicin] |  |  |  |  |  | tested positive | 58 fold | idarubicin>daunarubicin>epirubicin>doxorubicin | 1 µM | dose-dependent increase in transduction | 1 µM | about 100 fold | 200 to 600 fold | 5 µM | 200 fold | significantly increased the fraction of viral DNA in the nuclear compartment |
| N-acetyl-L-leucinyl-L-leucinal-L-norleucinal [LLnL] | significantly increased rAAV transduction |  |  |  |  |  |  |  | 40 µM |  | 40 µM |  |  | 40 µM | > 200 fold | significantly increased the fraction of viral DNA in the nuclear compartment |
